Assay results from patent US20020055528A1, “Artemisinin analogs having antimalarial, antiproliferative, and antitumor activities and chemoselective methods of making the same” (priority 1999, published 2002).
“Also recorded” adds a separate entry of the source.

Assays:
Assay type in all cases: cell-based
BT-549 = assay: NCI 60 cell line screen (SRB), Breast Cancer
RPMI-8226 = assay: NCI 60 cell line screen (SRB), Leukemia; conditions: for Log10TGI: PG=0
OVCAR-5 = assay: NCI 60 cell line screen (SRB), Ovarian Cancer; conditions: for Log10TGI: PG=0
COLO 205 = assay: NCI 60 cell line screen (SRB), Colon Cancer; conditions: for Log10TGI: PG=0
[1] = tested on: murine keratinocyte cell line PE; assay: Growth inhibition of PE cells, MTT assay; conditions: 100 nanomolar; compared with calcitriol; FIG. 5
Protocol: To determine the inhibitory effect of the compositions of the present invention on cell proliferation, screening assays were performed on a murine keratinocyte cell line PE. Cell line PE was chosen for its particular sensitivity to the induction of omithine decarboxylase (ODC) activity by the extensively characterized tumor promoter TPA. Cell line PE was derived from a papilloma-induced in female SENCAR mice by a standard skin initiation/promotion protocol, see Yuspa, S. H., et al., Carcinogenesis, 7:949-958 (1986). PE cell culture medium consisted of Eagle's minimal essential medium without calcium chloride (Whittaker Bioproducts, Walkersville, Mass.) supplemented with 8% chelexed fetal calf serum and 1% antibiotic-antimycotic (Gibco BRL) and the addition of CaCI2 to 0.05 mM Ca^++
MTT [3-(4,5-dimethylthiazol-2-yl)-2,5-diphenyltetraxolium bromide] was purchased from Sigma Chemical Co. (St. Louis, Mo.), and TPA was supplied by L.C. Services (Woburn, Mass.). L-[^14C]omithine ([…]) was from Amersham/Searle Corp. (Arlington Heights, Ill.). Chemical solvents used in all assays of biological activity were of the highest grade commercially available.
Growth curves, shown in FIG. 5, for PE cells treated with calcitriol and the C-10 carbon-substituted dimers VII-f, VII-g and VII-h generated by assay for the reduction of the tetrazolium-based compound MTT, see Charmichael, et al., Cancer Res., 47:936-942 (1987). A mitochondrial dehydrogenase reduces MTT to a blue formazan product with an absorbance maximum of 505 nm in DMSO; the number of viable cells can thus be determined spectrophotometrically. PE cells were seeded at a density of 5,000 cells/well in 50 IL of medium into 96-well microtiter plates. Twelve hours later, the medium was removed, and cells were treated with 100 μL of fresh medium into which the appropriate amount of calcitriol or analog dissolved in dimethyl sulfoxide (DMSO) had been added, with the concentration of DMSO held constant at 0.1 %. […] At 24-hour intervals following the initial treatment of the cells with compounds, 0.1 mg (50 μL of a 2 mg/mL solution) of MTT was added to each well. After 4 hours, the MTT was removed and DMSO added to dissolve the blue formazan dye. Using a microtiter plate reader, the A505 was then determined and cell number calculated from blank-subtracted absorbance values.

HOP-62 = assay: NCI 60 cell line screen (SRB), Non-Small Cell Lung Cancer; conditions: for Log10TGI: PG=0
60 cell line panel = assay: NCI 60 cell line screen (SRB), whole panel; conditions: for MG MID of Log10GI50 (Table IV) / Delta of Log10GI50 (Table IV) / Range of Log10GI50 (Table IV): Table IV (LC50); for MG MID of Log10GI50 (Table IV) / MG MID of Log10GI50 / MG MID of Log10TGI: mean over the panel; for Delta of Log10GI50 (Table IV) / Range of Log10GI50 (Table IV) / Delta of Log10GI50 / Delta of Log10TGI / Range of Log10GI50 / Range of Log10TGI: panel summary; for potency in words, compared with artemisinin and paclitaxel: Tables II, III and IV
Protocol: The screening assay is performed on 96-well microtitre plates. Relatively high initial inoculation densities are used, in order to permit measurement of “time-zero” values and to enhance the screen's ability to detect and provide some differentiation between antiproliferative and cytotoxic response parameters. […] The inoculated microtitre plates are pre-incubated for 24 hours at 37θC prior to drug additions. The five drug dilutions tested routinely range from 10^−4 to 10^−8 molar. Higher or lower concentration ranges may be selected on a nonroutine basis if appropriate solubility and/or prior biological information or other screening data so dictate. Duplicate wells are prepared for all concentrations, (concentration is often denoted by placing brackets around a number); “time-zero” and “no drug” controls are also provided for each test. The minimum amount of compound required for a one-time evaluation in the routine screen can be calculated from the knowledge that each test requires a total of approximately 40 ml (0.04 liter) of cell culture medium containing the highest desired drug concentration. Thus, the amount (grams) of sample required (assuming an upper test concentration limit of 10^−4 M) is: molecular weight of compound×[…]. After a 48 hour incubation (37θC) with the test compound, the cells are fixed in situ to the bottoms of the microtitre wells by addition of 50 ul of either 50% trichloroacetic acid (for adherent cell lines) or 80% trichloroacetic acid (for settled cell suspension lines), followed by incubation for 60 minutes at 4θC. The cellular protein in each well is assayed using a sulforhodamine B (SRB) stain procedure. Briefly, after discarding the supernatants, the microtitre plates are washed 5 times with deionized water and air-dried. One hundred microliters of SRB solution (0.4% w/v in 1% acetic acid) is added to each microtitre well and incubated for 10 minutes at room temperature. Unbound SRB is removed by washing 5 times with 1 % acetic acid. The plates are air-dried, the bound stain is solubilized with Tris buffer, and the optical densities read at 515 nm. SRB is a bright pink anionic dye which, in dilute acetic acid, binds electrostatically to the basic amino acids of TCA-fixed cells. Cryopreserved master stocks of all the lines are maintained, and cultures used for screening are replaced from the master stock after no more than twenty passages in the screening laboratory. The cell line panel consists of 60 lines, organized into nine, disease-related subpanels including leukemia, non-small-cell lung cancer, colon, CNS, melanoma, ovarian, renal, prostate and breast cancers.
The response parameters G150 and LC50 are interpolated values representing the concentrations at which the percentage growth (PG) is +50 and −50, respectively:
GI50 is the concentration for which the PG=+50. At this value the increase from time tzero, in the number or mass of cells in the test well is only 50% as much as the corresponding increase in the control well during this period of the experiment, see Table II. A drug effect of this intensity is interpreted as primary growth inhibition.
TGI is the concentration for which PG=0. At this value the number or mass of cells in the well at the end of the experiment equals the number or mass of cells in the well at time tzero, see Table III. A drug effect of this intensity is regarded as cytostasis.
LC50 is the concentration for which the PG=−50. At this value, the number or mass of cells in the test well at the end of the experiment is half that at time tzero, see Table IV. This is interpreted as cytotoxicity.

HCT-116 = assay: NCI 60 cell line screen (SRB), Colon Cancer; conditions: for Log10TGI: PG=0
A498 = assay: NCI 60 cell line screen (SRB), Renal Cancer; conditions: for Log10TGI: PG=0

SMILES	Log10GI50 (BT-549; PG=+50)	Log10GI50 (BT-549; Table IV (LC50, PG=−50))	Log10GI50 (RPMI-8226; Table IV (LC50, PG=−50))	Log10TGI (OVCAR-5)	Log10GI50 (OVCAR-5; PG=+50)	Log10GI50 (OVCAR-5; Table IV (LC50, PG=−50))	Log10GI50 (COLO 205; PG=+50)	antiproliferative activity in words [1]	Log10TGI (HOP-62)	Log10GI50 (HOP-62; PG=+50)	Log10GI50 (HOP-62; Table IV (LC50, PG=−50))	MG MID of Log10GI50 (Table IV) (60 cell line panel)	Delta of Log10GI50 (Table IV) (60 cell line panel)	Range of Log10GI50 (Table IV) (60 cell line panel)	potency in words, compared with artemisinin and paclitaxel (60 cell line panel)	MG MID of Log10GI50 (60 cell line panel)	MG MID of Log10TGI (60 cell line panel)	Delta of Log10GI50 (60 cell line panel)	Delta of Log10TGI (60 cell line panel)	Range of Log10GI50 (60 cell line panel)	also measured
CC1=C(C=Cc2cccc(C=CC3=C(C)C4CCC(C)C5CCC6(C)OOC45C(O3)O6)c2)OC2OC3(C)CCC4C(C)CCC1C24OO3 (stereo not drawn) [VII-h]	<−8.00 log10M	>−4.00 log10M	>−4.00 log10M	>−4.00 log10M	−7.12 log10M	>−4.00 log10M	−7.88 log10M	at least as antiproliferative as calcitriol	>−4.00 log10M	−7.08 log10M	>−4.00 log10M	−4.01 log10M	0.43	.44	in most instances are as potent and in some instances more potent than paclitaxel; also recorded: more potent than artemisinin and equivalent to and in many instances higher in potency than paclitaxel	−7.03 log10M	−4.61 log10M	0.97	2.62	4.00	Log10TGI (BT-549; PG=0): −7.10 log10M; Range of Log10TGI (60 cell line panel): 3.23; Log10TGI (HCT-116): −5.38 log10M; Log10 GI50 (PG=+50) or Log10 LC50 (PG=−50), as given per row condition (HCT-116; PG=+50): −7.53 log10M; Log10 GI50 (PG=+50) or Log10 LC50 (PG=−50), as given per row condition (HCT-116; Table IV (LC50, PG=−50)): >−4.00 log10M; Log10TGI (A498): >−4.00 log10M; Log10GI50 (A498; PG=+50): −6.29 log10M; Log10GI50 (A498; Table IV (LC50, PG=−50)): >−4.00 log10M
CC1=C(C=Cc2cccc(C=CC3=C(C)C4CCC(C)C5CCC6(C)OOC45C(O3)O6)c2)OC2OC3(C)CCC4C(C)CCC1C24OO3 (stereo not drawn) [VII-g]	−7.51 log10M	>−4.00 log10M	>−4.00 log10M	>−4.00 log10M	−6.58 log10M	>−4.00 log10M	−7.50 log10M	at least as antiproliferative as calcitriol	>−4.00 log10M	−6.45 log10M	>−4.00 log10M	−4.02 log10M	0.94	0.96	in most instances are as potent and in some instances more potent than paclitaxel; also recorded: more potent than artemisinin and equivalent to and in many instances higher in potency than paclitaxel	−6.58 log10M	−4.32 log10M	0.93	2.51	2.60	Log10TGI (RPMI-8226): −7.25 log10M; Log10GI50 (RPMI-8226; PG=+50): −7.25 log10M; Log10TGI (COLO 205): −6.82 log10M; Log10GI50 (COLO 205; Table IV (LC50, PG=−50)): −4.96 log10M; Range of Log10TGI (60 cell line panel): 2.82; Log10TGI (HCT-116): >−4.00 log10M; Log10 GI50 (PG=+50) or Log10 LC50 (PG=−50), as given per row condition (HCT-116; PG=+50): −7.13 log10M; Log10 GI50 (PG=+50) or Log10 LC50 (PG=−50), as given per row condition (HCT-116; Table IV (LC50, PG=−50)): >−4.00 log10M; Log10TGI (A498): −4.05 log10M; Log10GI50 (A498; PG=+50): −6.04 log10M; Log10GI50 (A498; Table IV (LC50, PG=−50)): >−4.00 log10M
CC1=C(C=Cc2cccc(C=CC3=C(C)C4CCC(C)C5CCC6(C)OOC45C(O3)O6)c2)OC2OC3(C)CCC4C(C)CCC1C24OO3 (stereo not drawn) [VII-f]	−6.50 log10M	>−4.00 log10M	>−4.00 log10M	>−4.00 log10M	−6.04 log10M	>−4.00 log10M	−6.61 log10M	at least as antiproliferative as calcitriol	>−4.00 log10M	−5.77 log10M	>−4.00 log10M	−4.23 log10M	1.70	1.93	in most instances are as potent and in some instances more potent than paclitaxel; also recorded: more potent than artemisinin and equivalent to and in many instances higher in potency than paclitaxel	−5.73 log10M	−4.23 log10M	0.98	1.70	2.71	Log10TGI (RPMI-8226): −6.21 log10M; Log10GI50 (RPMI-8226; PG=+50): −6.21 log10M; Log10TGI (COLO 205): −5.93 log10M; Log10GI50 (COLO 205; Table IV (LC50, PG=−50)): −5.30 log10M; Range of Log10TGI (60 cell line panel): 1.93; Log10TGI (HCT-116): >−4.00 log10M; Log10 GI50 (PG=+50) or Log10 LC50 (PG=−50), as given per row condition (HCT-116; PG=+50): −6.12 log10M; Log10 GI50 (PG=+50) or Log10 LC50 (PG=−50), as given per row condition (HCT-116; Table IV (LC50, PG=−50)): >−4.00 log10M; Log10TGI (A498): −4.37 log10M; Log10GI50 (A498; PG=+50): −4.79 log10M; Log10GI50 (A498; Table IV (LC50, PG=−50)): >−4.00 log10M
